pIC50: −log10 of the molar value.
What was measured:
[1] = In vitro inhibition of PGE-2 production in murine resident peritoneal macrophage; format: functional; settings: Mus musculus
Homo sapiens [2] = species: Homo sapiens; assay: In vitro inhibition of platelet activating factor (PAF) production in human PMN at 50 uM; not active at 50 uM; format: functional
[3] = target: T1, Phospholipase A2, membrane associated (Homo sapiens, UniProt P14555); assay: In vitro inhibition tested against Phospholipase A2 (HSF-PLA2) by monitoring hydrolysis of [3H]- arachidonic acid labeled Escherichia coli at 50 uM
T1 sequence (P14555 whole entry): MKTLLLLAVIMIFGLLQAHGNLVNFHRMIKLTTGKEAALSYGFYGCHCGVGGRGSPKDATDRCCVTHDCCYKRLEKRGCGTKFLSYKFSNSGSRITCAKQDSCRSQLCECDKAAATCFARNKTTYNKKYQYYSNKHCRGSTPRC

[4] = target: T2, Phospholipase A2, membrane associated (Homo sapiens) (UniProt P14555); assay: In vitro percent inhibition against Phospholipase A2 (HSF-PLA2) by monitoring hydrolysis of [3H]- arachidonic acid labeled Escherichia coli at 50 uM
T2 sequence (whole entry): T1 sequence (P14555 whole entry)

Homo sapiens [5] = species: Homo sapiens; assay: In vitro inhibition of LTB4 production in human PMN at 50 uM; not active at 50 uM; format: functional
Homo sapiens [6] = species: Homo sapiens; assay: In vitro inhibition of platelet activating factor (PAF) production in human PMN; format: functional
[7] = target: T1, Phospholipase A2, membrane associated; assay: In vitro inhibitory activity against human synovial fluid phospholipase A2 (HSF-PLA2) by monitoring hydrolysis of [3H]arachidonic acid labeled Escherichia coli
Homo sapiens [8] = species: Homo sapiens; assay: In vitro inhibition of LTB4 production in human PMN; format: functional
Homo sapiens [9] = species: Homo sapiens; assay: In vitro percent inhibition of platelet activating factor (PAF) production in human PMN at 10 uM; format: functional

pIC50 [1]	IC50 (Homo sapiens [2])	pIC50 [3]	inhibition [4] [%]	IC50 (Homo sapiens [5])	pIC50 (Homo sapiens [6])	pIC50 [7]	pIC50 (Homo sapiens [8])	SMILES	inhibition at 10 µM (Homo sapiens [9]) [%]
6.52	Not Active	< 4.30	21	Not Active	–	–	–	CC1(C)CCC[C@@]2(C)C1CC[C@]1(C)C2C[C@H](O)[C@@]2(C)C1CC=C(CO)[C@@H]2CO (some centres not stated)	–
7.40	–	–	–	–	6.00	7.82	6.00	CC(=O)O[C@H]1C[C@@H]2[C@@]3(C)CCCC(C)(C)[C@@H]3CC[C@@]2(C)[C@@H]2CC=C(C=O)[C@H](C=O)[C@@]12C [SCALARADIAL]	–
6.70	–	–	–	–	–	5.32	–	CC(=O)O[C@H]1CC2[C@@]3(C)CCCC(C)(C)C3CC[C@@]2(C)C2CC=C(C(=O)O)[C@H](C(=O)O)[C@]21C (some centres not stated)	60

Reference: ChEMBL document CHEMBL1127940, “Analogs of the marine natural product scalaradial lacking the ,-unsaturated aldehyde: effects on human synovial fluid phospholipase A2 and macrophage lipid mediator production” (Bioorg Med Chem Lett, 1994)
